{"source": "ChEMBL document CHEMBL1150777", "about": "“Chemically induced dimerization of human nonpancreatic secretory phospholipase A2 by bis-indole derivatives” (J Med Chem, 2008)", "note": "pIC50: −log10 of the molar value."}
{"target": "T1, Phospholipase A2, membrane associated (Homo sapiens, UniProt P14555)", "T1 sequence (P14555 whole entry)": "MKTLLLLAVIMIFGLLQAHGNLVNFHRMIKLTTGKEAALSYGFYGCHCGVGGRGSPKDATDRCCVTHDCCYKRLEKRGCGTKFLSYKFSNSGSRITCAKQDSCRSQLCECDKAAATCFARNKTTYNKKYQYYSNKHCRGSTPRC", "experiment": "Inhibition of human nonpancreatic secretory phospholipase A2"}
{"molecule": "COc1ccc2c(c1)c(CC(N)=O)c(C)n2Cc1ccccc1", "pIC50": 6.27}
{"molecule": "CCCCCOc1ccccc1Cn1c(C)c(CC(N)=O)c2cc(OC)ccc21", "pIC50": 6.92}
{"molecule": "COc1ccc2c(c1)c(CC(N)=O)c(C)n2Cc1ccccc1OCCCCCOc1ccccc1Cn1c(C)c(CC(N)=O)c2cc(OC)ccc21", "pIC50": 7.62}
{"molecule": "COc1ccc2c(c1)c(CC(N)=O)c(C)n2Cc1cccc(OCCCCCOc2cccc(Cn3c(C)c(CC(N)=O)c4cc(OC)ccc43)c2)c1", "pIC50": 7.12}
{"molecule": "COc1ccc2c(c1)c(CC(N)=O)c(C)n2Cc1ccc(OCCCCCOc2ccc(Cn3c(C)c(CC(N)=O)c4cc(OC)ccc43)cc2)cc1", "pIC50": 7.07}
{"molecule": "COc1ccc2c(c1)c(CC(N)=O)c(C)n2Cc1ccccc1OCCCCOc1ccccc1Cn1c(C)c(CC(N)=O)c2cc(OC)ccc21", "pIC50": 7.22}
{"molecule": "COc1ccc2c(c1)c(CC(N)=O)c(C)n2Cc1ccccc1OCCCCCCOc1ccccc1Cn1c(C)c(CC(N)=O)c2cc(OC)ccc21", "pIC50": 7.41}
{"molecule": "COc1ccc2c(c1)c(CC(N)=O)c(C)n2Cc1ccccc1OCCCOc1ccccc1Cn1c(C)c(CC(N)=O)c2cc(OC)ccc21", "pIC50": 7.32}
{"molecule": "COc1ccc2c(c1)c(CC(N)=O)c(C)n2Cc1ccccc1OCCCCCCCCCOc1ccccc1Cn1c(C)c(CC(N)=O)c2cc(OC)ccc21", "pIC50": 7.31}
{"molecule": "COc1ccc2c(c1)c(CC(N)=O)c(C)n2Cc1ccccc1OCCCCCCCOc1ccccc1Cn1c(C)c(CC(N)=O)c2cc(OC)ccc21", "pIC50": 7.28}
{"molecule": "COc1ccc2c(c1)c(CC(N)=O)c(C)n2Cc1ccccc1OCCCCCCCCOc1ccccc1Cn1c(C)c(CC(N)=O)c2cc(OC)ccc21", "pIC50": 7.24}
